Results reported in patent publication US20240150338A1, “COMPOUNDS AND USE THEREOF FOR TREATMENT OF NEURODEGENERATIVE, DEGENERATIVE AND METABOLIC DISORDERS” (University of Florida Research Foundation, Incorporated, priority 2021, published 2024).
pEC50: −log10 of the molar value.

system: PK1 neuroblastoma cells exposed to TPrP; experiment: cells; format: cell-based; settings: Neuroblastoma cell, 96 h, read-out: TPrP EC50

Compound | pEC50
NS(=O)(=O)c1ccc(Nc2nc(-c3ccncc3)cs2)cc1 [SR-186, 4-((4-(pyridin-4-yl)thiazol-2-yl)amino)benzenesulfonamide] | 7.15
NS(=O)(=O)c1ccc(Nc2nc(-c3ccc(S(=O)(=O)N4CCOCC4)cc3)c(CO)s2)cc1 [SR-34764, 4-((5-(Hydroxymethyl)-4-(4-(morpholinosulfonyl)phenyl)thiazol-2-yl)amino)benzenesulfonamide] | 7.22
NS(=O)(=O)c1ccc(Nc2nc(-c3ccc(S(=O)(=O)N4CCOCC4)cc3)cs2)cc1 [SR-34765, 4-((4-(4-(Morpholinosulfonyl)phenyl)thiazol-2-yl)amino)benzenesulfonamide] | 7.15
NS(=O)(=O)c1ccc(Nc2nc(-c3ccc(S(=O)(=O)Nc4ccccc4)cc3)cs2)cc1 [SR-34767, N-Phenyl-4-(2-((4-sulfamoylphenyl)amino)thiazol-4-yl)benzenesulfonamide] | < 6.30
CCN(CC)S(=O)(=O)c1ccc(-c2csc(Nc3ccc(S(N)(=O)=O)cc3)n2)cc1 [SR-34768, N,N-diethyl-4-(2-((4-sulfamoylphenyl)amino)thiazol-4-yl)benzenesulfonamide] | 6.82
CN(C)S(=O)(=O)c1ccc(-c2csc(Nc3ccc(S(N)(=O)=O)cc3)n2)cc1 [SR-34769, N,N-dimethyl-4-(2-((4-sulfamoylphenyl)amino)thiazol-4-yl)benzenesulfonamide] | 7.52
CNS(=O)(=O)c1ccc(-c2csc(Nc3ccc(S(N)(=O)=O)cc3)n2)cc1 [SR-34771, N-methyl-4-(2-((4-sulfamoylphenyl)amino)thiazol-4-yl)benzenesulfonamide] | 7.60
NS(=O)(=O)c1ccc(Nc2nc(-c3ccc(S(=O)(=O)N4CCCCC4)cc3)c(CO)s2)cc1 [SR-34772, 4-((5-(Hydroxymethyl)-4-(4-(piperidin-1-ylsulfonyl)phenyl)thiazol-2-yl)amino)benzenesulfonamide] | 6.40
CCN(CC)S(=O)(=O)c1ccc(-c2nc(Nc3ccc(S(N)(=O)=O)cc3)sc2CO)cc1 [SR-34774, N,N-diethyl-4-(5-(hydroxymethyl)-2-((4-sulfamoylphenyl)amino)thiazol-4-yl)benzenesulfonamide] | 6.82
CN(C)S(=O)(=O)c1ccc(-c2nc(Nc3ccc(S(N)(=O)=O)cc3)sc2CO)cc1 [SR-34775, 4-(5-(Hydroxymethyl)-2-((4-sulfamoylphenyl)amino)thiazol-4-yl)-N,N-dimethylbenzenesulfonamide] | 7.22
CNS(=O)(=O)c1ccc(-c2nc(Nc3ccc(S(N)(=O)=O)cc3)sc2CO)cc1 [SR-34777, 4-(5-(Hydroxymethyl)-2-((4-sulfamoylphenyl)amino)thiazol-4-yl)-N-methylbenzenesulfonamide] | 7.15
CN(C)S(=O)(=O)c1ccc(-c2csc(Nc3ccc(S(C)(=O)=O)cc3)n2)cc1 [SR-34965, N,N-dimethyl-4-(2-((4-(methylsulfonyl)phenyl)amino)thiazol-4-yl)benzenesulfonamide] | 7.00
CCN(CC)S(=O)(=O)c1ccc(-c2csc(Nc3ccc(S(C)(=O)=O)cc3)n2)cc1 [SR-34966, N,N-diethyl-4-(2-((4-(methylsulfonyl)phenyl)amino)thiazol-4-yl)benzenesulfonamide] | < 6.30
CC(C)NS(=O)(=O)c1ccc(-c2csc(Nc3ccc(S(C)(=O)=O)cc3)n2)cc1 [SR-34967, N-isopropyl-4-(2-((4-(methylsulfonyl)phenyl)amino)thiazol-4-yl)benzenesulfonamide] | 6.30
CNS(=O)(=O)c1ccc(-c2nc(Nc3ccc(S(C)(=O)=O)cc3)sc2CO)cc1 [SR-34968, 4-(5-(Hydroxymethyl)-2-((4-(methylsulfonyl)phenyl)amino)thiazol-4-yl)-N-methylbenzenesulfonamide] | < 6.30
CN(C)S(=O)(=O)c1ccc(-c2nc(Nc3ccc(S(C)(=O)=O)cc3)sc2CO)cc1 [SR-34969, 4-(5-(Hydroxymethyl)-2-((4-(methylsulfonyl)phenyl)amino)thiazol-4-yl)-N,N-dimethylbenzenesulfonamide] | 6.46
CCN(CC)S(=O)(=O)c1ccc(-c2nc(Nc3ccc(S(C)(=O)=O)cc3)sc2CO)cc1 [SR-34970, N,N-diethyl-4-(5-(hydroxymethyl)-2-((4-(methylsulfonyl)phenyl)amino)thiazol-4-yl)benzenesulfonamide] | < 6.30
CC(C)NS(=O)(=O)c1ccc(-c2nc(Nc3ccc(S(C)(=O)=O)cc3)sc2CO)cc1 [SR-34971, 4-(5-(Hydroxymethyl)-2-((4-(methylsulfonyl)phenyl)amino)thiazol-4-yl)-N-isopropylbenzenesulfonamide] | < 6.30
CS(=O)(=O)c1ccc(Nc2nc(-c3ccnc(Cl)c3)cs2)cc1F [SR-34972, 4-(2-Chloropyridin-4-yl)-N-(3-fluoro-4-(methylsulfonyl)phenyl)thiazol-2-amine] | 6.90
Cc1cc(-c2csc(Nc3ccc(S(C)(=O)=O)c(F)c3)n2)ccn1 [SR-34973, N-(3-fluoro-4-(methylsulfonyl)phenyl)-4-(2-methylpyridin-4-yl)thiazol-2-amine] | 7.15

Compound | pEC50
COc1cc(-c2csc(Nc3ccc(S(C)(=O)=O)c(F)c3)n2)ccn1 [SR-34975, N-(3-fluoro-4-(methylsulfonyl)phenyl)-4-(2-methoxypyridin-4-yl)thiazol-2-amine] | 6.77
COc1cc(-c2csc(Nc3ccc(S(C)(=O)=O)c(F)c3)n2)cc(OC)n1 [SR-34976, 4-(2,6-Dimethoxypyridin-4-yl)-N-(3-fluoro-4-(methylsulfonyl)phenyl)thiazol-2-amine] | 6.49
CS(=O)(=O)c1ccc(Nc2nc(-c3ccnc(Cl)c3)c(CO)s2)cc1F [SR-34977, (4-(2-Chloropyridin-4-yl)-2-((3-fluoro-4-(methylsulfonyl)phenyl)amino)thiazol-5-yl)methanol] | 6.44
Cc1cc(-c2nc(Nc3ccc(S(C)(=O)=O)c(F)c3)sc2CO)ccn1 [SR-34978, (2-((3-Fluoro-4-(methylsulfonyl)phenyl)amino)-4-(2-methylpyridin-4-yl)thiazol-5-yl)methanol] | 6.49
Cc1cc(-c2nc(Nc3ccc(S(C)(=O)=O)c(F)c3)sc2CO)cc(C)n1 [SR-34979, (4-(2,6-Dimethylpyridin-4-yl)-2-((3-fluoro-4-(methylsulfonyl)phenyl)amino)thiazol-5-yl)methanol] | 6.44
COc1cc(-c2nc(Nc3ccc(S(C)(=O)=O)c(F)c3)sc2CO)ccn1 [SR-34980, (2-((3-Fluoro-4-(methylsulfonyl)phenyl)amino)-4-(2-methoxypyridin-4-yl)thiazol-5-yl)methanol] | 6.49
COc1cc(-c2nc(Nc3ccc(S(C)(=O)=O)c(F)c3)sc2CO)cc(OC)n1 [SR-34981, (4-(2,6-Dimethoxypyridin-4-yl)-2-((3-fluoro-4-(methylsulfonyl)phenyl)amino)thiazol-5-yl)methanol] | < 6.30
Cc1cc(-c2csc(Nc3ccc(S(C)(=O)=O)c(C(F)(F)F)c3)n2)ccn1 [SR-34983, 4-(2-Methylpyridin-4-yl)-N-(4-(methylsulfonyl)-3-(trifluoromethyl)phenyl)thiazol-2-amine] | 7.40
COc1cc(-c2csc(Nc3ccc(S(C)(=O)=O)c(C(F)(F)F)c3)n2)ccn1 [SR-34985, 4-(2-Methoxypyridin-4-yl)-N-(4-(methylsulfonyl)-3-(trifluoromethyl)phenyl)thiazol-2-amine] | 6.47
COc1cc(-c2csc(Nc3ccc(S(C)(=O)=O)c(C(F)(F)F)c3)n2)cc(OC)n1 [SR-34986, 4-(2,6-Dimethoxypyridin-4-yl)-N-(4-(methylsulfonyl)-3-(trifluoromethyl)phenyl)thiazol-2-amine] | < 6.30
CS(=O)(=O)c1ccc(Nc2nc(-c3ccnc(Cl)c3)c(CO)s2)cc1C(F)(F)F [SR-34987, (4-(2-Chloropyridin-4-yl)-2-((4-(methylsulfonyl)-3-(trifluoromethyl)phenyl)amino)thiazol-5-yl)methanol] | 6.32
Cc1cc(-c2nc(Nc3ccc(S(C)(=O)=O)c(C(F)(F)F)c3)sc2CO)ccn1 [SR-34988, (4-(2-Methylpyridin-4-yl)-2-((4-(methylsulfonyl)-3-(trifluoromethyl)phenyl)amino)thiazol-5-yl)methanol] | 6.47
Cc1cc(-c2nc(Nc3ccc(S(C)(=O)=O)c(C(F)(F)F)c3)sc2CO)cc(C)n1 [SR-34989, (4-(2,6-Dimethylpyridin-4-yl)-2-((4-(methylsulfonyl)-3-(trifluoromethyl)phenyl)amino)thiazol-5-yl)methanol] | 6.49
COc1cc(-c2nc(Nc3ccc(S(C)(=O)=O)c(C(F)(F)F)c3)sc2CO)ccn1 [SR-34990, (4-(2-Methoxypyridin-4-yl)-2-((4-(methylsulfonyl)-3-(trifluoromethyl)phenyl)amino)thiazol-5-yl)methanol] | 6.32
COc1cc(-c2nc(Nc3ccc(S(C)(=O)=O)c(C(F)(F)F)c3)sc2CO)cc(OC)n1 [SR-34991, (4-(2,6-Dimethoxypyridin-4-yl)-2-((4-(methylsulfonyl)-3-(trifluoromethyl)phenyl)amino)thiazol-5-yl)methanol] | < 6.30
Cc1cc(-c2nc(Nc3ccc(S(C)(=O)=O)c(Cl)c3)sc2CO)cc(C)n1 [SR-34995, (2-((3-Chloro-4-(methylsulfonyl)phenyl)amino)-4-(2,6-dimethylpyridin-4-yl)thiazol-5-yl)methanol] | 6.94
COc1cc(-c2nc(Nc3ccc(S(C)(=O)=O)c(Cl)c3)sc2CO)ccn1 [SR-34996, (2-((3-Chloro-4-(methylsulfonyl)phenyl)amino)-4-(2-methoxypyridin-4-yl)thiazol-5-yl)methanol] | 6.77
COCc1sc(Nc2ccc(S(C)(=O)=O)cc2)nc1-c1ccnc(C)c1 [SR-35364, 5-(Methoxymethyl)-4-(2-methylpyridin-4-yl)-N-(4-(methylsulfonyl)phenyl)thiazol-2-amine] | 6.64
CCOCc1sc(Nc2ccc(S(C)(=O)=O)cc2)nc1-c1ccnc(C)c1 [SR-35365, 5-(Ethoxymethyl)-4-(2-methylpyridin-4-yl)-N-(4-(methylsulfonyl)phenyl)thiazol-2-amine] | 6.35
Cc1cc(-c2nc(Nc3ccc(S(C)(=O)=O)cc3)sc2C=O)ccn1 [SR-35367, 4-(2-Methylpyridin-4-yl)-2-((4-(methylsulfonyl)phenyl)amino)thiazole-5-carbaldehyde] | 6.64
